Source: ChEMBL document CHEMBL1201862, “PubChem BioAssay data set” (2004)
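A five-concentration, 48-hour dose response in 96-well plates underlies each endpoint, interpolated linearly between surrounding concentrations. GI50 marks 50% less growth.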 The source made the active and inactive calls. No stated cut-off is given here; in the data, active = GI50 up to about 1.1 µM and inactive = higher.

Columns and labels:
Test in all cases: NCI-60 cell line screen, 48 h
[1] = system: A498
[2] = system: A549
[3] = system: EKVX
[4] = system: HOP-92
[5] = system: Hs-578T
[6] = system: KM12
[7] = system: MCF7
[8] = system: MDA-MB-231
[9] = system: MDA-MB-435
[10] = system: MDA-N
[11] = system: Malme-3M
[12] = system: NCI/ADR-RES
[13] = system: OVCAR-4
[14] = system: SF-268
[15] = system: SK-MEL-28
[16] = system: SK-MEL-2
[17] = system: SK-MEL-5
[18] = system: SN12C
[19] = system: SR
[20] = system: SW-620

Compound: Cc1c(C)n(-c2ccccc2)c2nc([S+](C)[O-])nc([S+](C)[O-])c12 (stereo not given)
- GI50 [1]: 13.1 µM (inactive)
- GI50 [2]: 16.6 µM (inactive)
- GI50 [3]: 6.92 µM (inactive)
- GI50 [4]: 1.96 µM (inactive)
- GI50 [5]: 25.5 µM (inactive)
- GI50 [6]: 13.3 µM (inactive)
- GI50 [7]: 2.16 µM (inactive)
- GI50 [8]: 4.74 µM (inactive)
- GI50 [9]: 3.1 µM (inactive)
- GI50 [10]: 3.68 µM (inactive)
- GI50 [11]: 1.98 µM (inactive)
- GI50 [12]: 22.9 µM (inactive)
- GI50 [13]: 4.85 µM (inactive)
- GI50 [14]: 7.14 µM (inactive)
- GI50 [15]: 4.15 µM (inactive)
- GI50 [16]: 4.68 µM (inactive)
- GI50 [17]: 2.35 µM (inactive)
- GI50 [18]: 8.28 µM (inactive)
- GI50 [19]: 0.809 µM (active)
- GI50 [20]: 1.79 µM (inactive)

Compound: COc1ccc(C(CC(C)=O)c2c(O)c3ccccc3oc2=O)cc1OC (stereo not given)
- GI50 [1]: > 100 µM (inactive)
- GI50 [2]: > 100 µM (inactive)
- GI50 [3]: > 100 µM (inactive)
- GI50 [4]: > 100 µM (inactive)
- GI50 [5]: > 100 µM (inactive)
- GI50 [6]: > 100 µM (inactive)
- GI50 [7]: > 100 µM (inactive)
- GI50 [8]: > 100 µM (inactive)
- GI50 [9]: > 100 µM (inactive)
- GI50 [10]: > 100 µM (inactive)
- GI50 [11]: > 100 µM (inactive)
- GI50 [12]: > 100 µM (inactive)
- GI50 [13]: > 100 µM (inactive)
- GI50 [14]: > 100 µM (inactive)
- GI50 [15]: > 100 µM (inactive)
- GI50 [16]: > 100 µM (inactive)
- GI50 [17]: > 100 µM (inactive)
- GI50 [18]: > 100 µM (inactive)
- GI50 [19]: > 100 µM (inactive)
- GI50 [20]: > 100 µM (inactive)

Compound: O=C1CSC2(CC(/C=C/c3cccs3)=NN2c2cccc(S(=O)(=O)O)c2)N1c1nc2ccccc2s1 (stereo not given)
- GI50 [1]: 15.6 µM (inactive)
- GI50 [2]: > 100 µM (inactive)
- GI50 [3]: 52.6 µM (inactive)
- GI50 [4]: 41.2 µM (inactive)
- GI50 [5]: > 100 µM (inactive)
- GI50 [6]: > 100 µM (inactive)
- GI50 [7]: 54.1 µM (inactive)
- GI50 [8]: > 100 µM (inactive)
- GI50 [9]: 72.4 µM (inactive)
- GI50 [10]: > 100 µM (inactive)
- GI50 [11]: > 100 µM (inactive)
- GI50 [12]: > 100 µM (inactive)
- GI50 [13]: > 100 µM (inactive)
- GI50 [14]: > 100 µM (inactive)
- GI50 [15]: > 100 µM (inactive)
- GI50 [16]: > 100 µM (inactive)
- GI50 [17]: > 100 µM (inactive)
- GI50 [18]: > 100 µM (inactive)
- GI50 [19]: 30.2 µM (inactive)
- GI50 [20]: > 100 µM (inactive)

Compound: CCN(CC)CC1CCCCN1CC(=O)N1c2ccccc2C(=O)Nc2cccnc21 (stereo not given) [OTENZEPAD]
- GI50 [1]: > 100 µM (inactive)
- GI50 [2]: 17 µM (inactive)
- GI50 [3]: > 100 µM (inactive)
- GI50 [4]: > 100 µM (inactive)
- GI50 [5]: 93.1 µM (inactive)
- GI50 [6]: 66.7 µM (inactive)
- GI50 [7]: 27.9 µM (inactive)
- GI50 [8]: 32.1 µM (inactive)
- GI50 [9]: 63 µM (inactive)
- GI50 [10]: 66.2 µM (inactive)
- GI50 [11]: > 100 µM (inactive)
- GI50 [12]: 20.8 µM (inactive)
- GI50 [13]: 38.9 µM (inactive)
- GI50 [14]: 59.2 µM (inactive)
- GI50 [15]: > 100 µM (inactive)
- GI50 [16]: > 100 µM (inactive)
- GI50 [17]: > 100 µM (inactive)
- GI50 [18]: 50.9 µM (inactive)
- GI50 [19]: 28.1 µM (inactive)
- GI50 [20]: 36.7 µM (inactive)

Compound: CCCNC1=C2CC(C)CC(OC)[C@@H](O)[C@H](C)/C=C(\C)C(OC(N)=O)C(OC)/C=C\C=C(/C)C(=O)NC(=CC1=O)C2=O (stereo not given in full)
- GI50 [1]: 0.944 µM (active)
- GI50 [2]: 0.0847 µM (active)
- GI50 [3]: 3.36 µM (inactive)
- GI50 [4]: 0.124 µM (active)
- GI50 [5]: 3.03 µM (inactive)
- GI50 [6]: 0.0362 µM (active)
- GI50 [7]: 0.124 µM (active)
- GI50 [8]: 0.318 µM (active)
- GI50 [9]: 0.274 µM (active)
- GI50 [10]: 0.118 µM (active)
- GI50 [11]: 0.0612 µM (active)
- GI50 [12]: 3.31 µM (inactive)
- GI50 [13]: 26.6 µM (inactive)
- GI50 [14]: 0.524 µM (active)
- GI50 [15]: 0.0627 µM (active)
- GI50 [16]: 0.129 µM (active)
- GI50 [17]: 0.0637 µM (active)
- GI50 [18]: 0.0809 µM (active)
- GI50 [19]: 0.31 µM (active)
- GI50 [20]: 0.0379 µM (active)

Compound: N#C[BH2-][n+]1ccc(C(=O)NNCc2cccc(C(F)(F)F)c2)cc1
- GI50 [1]: 21.6 µM (inactive)
- GI50 [2]: 13.5 µM (inactive)
- GI50 [3]: 27.3 µM (inactive)
- GI50 [4]: 14.9 µM (inactive)
- GI50 [5]: 4.59 µM (inactive)
- GI50 [6]: 4.76 µM (inactive)
- GI50 [7]: 5.64 µM (inactive)
- GI50 [8]: 10.4 µM (inactive)
- GI50 [9]: 17.7 µM (inactive)
- GI50 [10]: 10.2 µM (inactive)
- GI50 [11]: 3.54 µM (inactive)
- GI50 [12]: 11.6 µM (inactive)
- GI50 [13]: 6.14 µM (inactive)
- GI50 [14]: 4.82 µM (inactive)
- GI50 [15]: 5.5 µM (inactive)
- GI50 [16]: 12.1 µM (inactive)
- GI50 [17]: 1.83 µM (inactive)
- GI50 [18]: 28.8 µM (inactive)
- GI50 [19]: 26.9 µM (inactive)
- GI50 [20]: 25.5 µM (inactive)
